The subject of the test is expert panel. The test is described as follows: Tasting of ethanol and HMF-containing mixtures by an expert panel (5% sucrose solution). Type of test: in vivo, human. An excerpt: The test matrix used was a 5% sucrose solution having alcohol contents of 4 and 10% by volume respectively. Added to each of the two sucrose solutions were • a) nothing, • b) 2 ppm of HMF87 from Example 1, • c) 2 ppm of HMF99 from Example 1, • d) 5 ppm of HMF87 from Example 1 and • e) 5 ppm of HMF99 from Example 1.
All of these solutions were tasted by an expert panel consisting of five experts in each case.

Structures are written as SMILES.

As to `COc1ccc(-c2oc3c(OC)c(OC)c(OC)c(OC)c3c(=O)c2OC)cc1OC` [HMF, 3,3′,4′,5,6,7,8-heptamethoxyflavone], where the note is “2 or 5 ppm of HMF87 or HMF99, 4 and 10% by volume alcohol, five experts”, the “intensification of the alcohol impression compared with the samples without HMF” value is on record as “highly significant intensification of the alcohol impression”.

In the case of `COc1ccc(-c2oc3c(OC)c(OC)c(OC)c(OC)c3c(=O)c2OC)cc1OC` [HMF99, 3,3′,4′,5,6,7,8-heptamethoxyflavone], the “difference between HMF87 and HMF99 in intensification of the alcohol impression” value (2 and 5 ppm, 4 and 10% by volume alcohol) is reported as “no significant difference”.

Source of the values: US8435586B2, “Use of alkoxylated flavones to intensify the sensory impression of alcohol” (Symrise AG, priority 2007, dated 2013).
